Data as given in ChEMBL document CHEMBL1147649, “Design and synthesis of potent beta-secretase (BACE1) inhibitors with P1' carboxylic acid bioisosteres” (Bioorg Med Chem Lett, 2006).

Assays:
Beta-secretase 1 [1] = biological target: T1, Beta-secretase 1 (Homo sapiens, UniProt P56817); assay: Inhibition of BACE1 at 0.2 uM
Beta-secretase 1 [2] = biological target: T1, Beta-secretase 1; assay: Inhibition of BACE1 at 2 uM
Beta-secretase 1 [3] = biological target: T1, Beta-secretase 1; assay: Inhibition of BACE1

T1 sequence (P56817 whole entry): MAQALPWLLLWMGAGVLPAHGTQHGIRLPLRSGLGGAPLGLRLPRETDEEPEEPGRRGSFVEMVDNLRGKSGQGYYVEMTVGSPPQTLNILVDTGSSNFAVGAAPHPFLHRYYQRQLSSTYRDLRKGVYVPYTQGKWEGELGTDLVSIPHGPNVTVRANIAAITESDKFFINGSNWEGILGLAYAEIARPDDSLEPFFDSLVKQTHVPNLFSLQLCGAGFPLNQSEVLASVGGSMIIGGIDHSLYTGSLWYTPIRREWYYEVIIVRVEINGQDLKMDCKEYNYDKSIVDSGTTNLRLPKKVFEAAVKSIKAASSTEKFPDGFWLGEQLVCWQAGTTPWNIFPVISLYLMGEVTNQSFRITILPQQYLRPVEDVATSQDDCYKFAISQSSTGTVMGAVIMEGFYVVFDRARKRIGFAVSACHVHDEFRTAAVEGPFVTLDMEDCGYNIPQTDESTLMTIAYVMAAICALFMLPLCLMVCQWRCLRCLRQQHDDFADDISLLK

Compound | inhibition (Beta-secretase 1 [1]) | inhibition (Beta-secretase 1 [2]) | IC50 (Beta-secretase 1 [3])
CC(C)C[C@H](NC(=O)[C@@H](NC(=O)[C@@H](N)CCC(=O)O)C(C)C)C(=O)N[C@@H](Cc1ccccc1)[C@@H](O)C(=O)Nc1cccc(C(=O)O)c1 | 44.4% |  | 
CC(C)C[C@H](NC(=O)[C@@H](NC(=O)[C@@H](N)CCC(=O)O)C(C)C)C(=O)N[C@@H](Cc1ccccc1)[C@@H](O)C(=O)Nc1cccc(-c2nsc(=O)[nH]2)c1 | 63.2% | 91.9% | 
CC(C)C[C@H](NC(=O)[C@@H](NC(=O)[C@@H](N)CCC(=O)O)C(C)C)C(=O)N[C@@H](Cc1ccccc1)[C@@H](O)C(=O)Nc1cccc(-c2nn[nH]n2)c1 | 73.7% | 92.2% | 
CC(C)C[C@H](NC(=O)[C@@H](NC(=O)[C@@H](N)CCC(=O)O)C(C)C)C(=O)N[C@@H](Cc1ccccc1)[C@@H](O)C(=O)Nc1cccc(C(N)=O)c1 |  | 62.1% | 
CC(C)C[C@H](NC(=O)[C@@H](NC(=O)[C@@H](N)CNC(=O)c1nn[nH]n1)C(C)C)C(=O)N[C@@H](Cc1ccccc1)[C@@H](O)C(=O)Nc1cc(-c2nn[nH]n2)cc(-c2nn[nH]n2)c1 | 100% | 100% | 
CC(C)C[C@H](NC(=O)[C@@H](NC(=O)[C@@H](N)CCC(=O)O)C(C)C)C(=O)N[C@@H](Cc1ccccc1)[C@@H](O)C(=O)Nc1cc(C(=O)O)cc(C(=O)O)c1 | 84.3% | 98.3% | 
CC(C)C[C@H](NC(=O)[C@@H](NC(=O)[C@@H](N)CCC(=O)O)C(C)C)C(=O)N[C@@H](Cc1ccccc1)[C@@H](O)C(=O)Nc1cc(-c2nn[nH]n2)cc(-c2nn[nH]n2)c1 | 94% | 99.7% | 6.4 nM
CC(C)C[C@H](NC(=O)[C@@H](NC(=O)[C@@H](N)CNC(=O)c1nnn[nH]1)C(C)C)C(=O)N[C@@H](Cc1ccccc1)[C@@H](O)C(=O)Nc1cccc(-c2nc(=S)o[nH]2)c1 |  |  | 6.4 nM
CC(C)C[C@H](NC(=O)[C@@H](NC(=O)[C@@H](N)CNC(=O)c1nnn[nH]1)C(C)C)C(=O)N[C@@H](Cc1ccccc1)[C@@H](O)C(=O)Nc1cc(-c2nnn[nH]2)cc(-c2nnn[nH]2)c1 |  |  | 1.2 nM
CC(C)C[C@H](NC(=O)[C@@H](NC(=O)[C@@H](N)CCC(=O)O)C(C)C)C(=O)N[C@@H](Cc1ccccc1)[C@@H](O)C(=O)Nc1cccc(-c2n[nH]c(=S)n2C)c1 |  | 74.2% | 
CC(C)C[C@H](NC(=O)[C@@H](NC(=O)[C@@H](N)CNC(=O)c1nn[nH]n1)C(C)C)C(=O)N[C@@H](Cc1ccccc1)[C@@H](O)C(=O)Nc1cccc(-c2noc(S)n2)c1 | 97.2% | 99.8% | 
CC(C)C[C@H](NC(=O)[C@@H](NC(=O)[C@@H](N)CCC(=O)O)C(C)C)C(=O)N[C@@H](Cc1ccccc1)[C@@H](O)C(=O)Nc1cccc(-c2noc(=O)[nH]2)c1 | 66.3% | 94.4% | 
CC(C)C[C@H](NC(=O)[C@@H](NC(=O)[C@@H](N)CCC(=O)O)C(C)C)C(=O)N[C@@H](Cc1ccccc1)[C@@H](O)C(=O)Nc1cccc(-c2n[nH]c(=S)o2)c1 | 72.3% | 92% | 
CC(C)C[C@H](NC(=O)[C@@H](NC(=O)[C@@H](N)CCC(=O)O)C(C)C)C(=O)N[C@@H](Cc1ccccc1)[C@@H](O)C(=O)Nc1cccc(C(=N)N)c1 |  | 29.2% | 
CC(C)C[C@H](NC(=O)[C@@H](NC(=O)[C@@H](N)CNC(=O)c1nnn[nH]1)C(C)C)C(=O)N[C@@H](Cc1ccccc1)[C@@H](O)C(=O)Nc1cccc(-c2nnn[nH]2)c1 |  |  | 4.8 nM
CC(C)C[C@H](NC(=O)[C@@H](NC(=O)[C@@H](N)CNC(=O)c1nn[nH]n1)C(C)C)C(=O)N[C@@H](Cc1ccccc1)[C@@H](O)C(=O)Nc1cccc(-c2noc(O)n2)c1 | 94.2% | 100% | 6.6 nM
CC(C)C[C@H](NC(=O)[C@@H](NC(=O)[C@@H](N)CCC(=O)O)C(C)C)C(=O)N[C@@H](Cc1ccccc1)[C@@H](O)C(=O)Nc1cccc(-c2noc(=S)[nH]2)c1 | 68.4% | 94.5% | 
CC(C)C[C@H](NC(=O)[C@@H](NC(=O)[C@@H](N)CNC(=O)c1nn[nH]n1)C(C)C)C(=O)N[C@@H](Cc1ccccc1)[C@@H](O)C(=O)Nc1cccc(C(N)=O)c1 | 78.1% | 97.3% | 
